Assay results taken from PubChem BioAssay AID248 (DTP/NCI, 2004).
Where “and” joins values, the source holds several entries; their conditions need not be identical. Equal values may be shown once. Toxic doses and inconclusive results are not listed. Rule as the data show it: active = T/C of 150% or more; inactive = T/C below 125%.

System: L1210 leukemia ip in BDF1 mice, survival T/C
Test: NCI In Vivo Anticancer Drug Screen. Data for tumor model L1210 Leukemia (intraperitoneal) in B6D2F1 (BDF1) mice
Settings: endpoint: mean survival time, higher = longer survival
Procedure, shortened: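 Mice bearing the transplanted tumor received compound or vehicle. Survival of the treated group was divided by that of the vehicle-treated control group to give the ratio.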

[1] = dose: 25.0 mg/kg/injection, schedule: Q01DX009 (ip), vehicle: saline
[2] = dose: 50.0 mg/kg/injection, schedule: Q01DX009 (ip), vehicle: saline
[3] = dose: 100.0 mg/kg/injection, schedule: Q01DX001 (ip), vehicle: saline
[4] = dose: 200.0 mg/kg/injection, schedule: Q01DX001 (ip), vehicle: saline
[5] = dose: 400.0 mg/kg/injection, schedule: Q01DX001 (ip), vehicle: saline
[6] = dose: 100.0 mg/kg/injection, schedule: Q04DX003 (ip), vehicle: Klucel (hydroxypropylcellulose) (HPC)
[7] = dose: 200.0 mg/kg/injection, schedule: Q04DX003 (ip), vehicle: Klucel (hydroxypropylcellulose) (HPC)
[8] = dose: 400.0 mg/kg/injection, schedule: Q04DX003 (ip), vehicle: Klucel (hydroxypropylcellulose) (HPC)
[9] = dose: 12.5 mg/kg/injection, schedule: Q04DX002 (ip), vehicle: saline with Tween-80
[10] = dose: 25.0 mg/kg/injection, schedule: Q04DX002 (ip), vehicle: saline with Tween-80
[11] = dose: 50.0 mg/kg/injection, schedule: Q04DX002 (ip), vehicle: saline with Tween-80
[12] = dose: 100.0 mg/kg/injection, schedule: Q04DX002 (ip), vehicle: saline with Tween-80
[13] = dose: 100.0 mg/kg/injection, schedule: Q01DX001 (ip), vehicle: carboxymethylcellulose (CMC)
[14] = dose: 200.0 mg/kg/injection, schedule: Q01DX001 (ip), vehicle: carboxymethylcellulose (CMC)
[15] = dose: 400.0 mg/kg/injection, schedule: Q01DX001 (ip), vehicle: carboxymethylcellulose (CMC)
[16] = dose: 50.0 mg/kg/injection, schedule: Q01DX009 (ip), vehicle: saline with Tween-80
[17] = dose: 100.0 mg/kg/injection, schedule: Q01DX009 (ip), vehicle: saline with Tween-80
[18] = dose: 200.0 mg/kg/injection, schedule: Q01DX009 (ip), vehicle: saline with Tween-80
[19] = dose: 100.0 mg/kg/injection, schedule: Q01DX009 (ip), vehicle: Klucel (hydroxypropylcellulose) (HPC)
[20] = dose: 200.0 mg/kg/injection, schedule: Q01DX009 (ip), vehicle: Klucel (hydroxypropylcellulose) (HPC)
[21] = dose: 50.0 mg/kg/injection, schedule: Q01DX009 (ip), vehicle: Klucel (hydroxypropylcellulose) (HPC)
[22] = dose: 50.0 mg/kg/injection, schedule: Q04DX003 (ip), vehicle: Klucel (hydroxypropylcellulose) (HPC)
[23] = dose: 100.0 mg/kg/injection, schedule: Q04DX003 (ip), vehicle: saline with Tween-80
[24] = dose: 200.0 mg/kg/injection, schedule: Q04DX003 (ip), vehicle: saline with Tween-80
[25] = dose: 100.0 mg/kg/injection, schedule: Q04DX002 (ip), vehicle: saline
[26] = dose: 200.0 mg/kg/injection, schedule: Q04DX002 (ip), vehicle: saline
[27] = dose: 400.0 mg/kg/injection, schedule: Q04DX002 (ip), vehicle: saline

Measured: T/C

CN(C)Cc1ncccc1OC(=O)N(c1ccccc1)c1ccccc1
inactive: dose: 12.5 mg/kg/injection, schedule: Q01DX009 (ip), vehicle: saline 97 % of control | [1] 97 % of control | [2] 100 % of control

COC(=O)C1CCN(Cc2ccccc2)CC1=O (configuration not stated)
inactive: dose: 50.0 mg/kg/injection, schedule: Q01DX001 (ip), vehicle: saline 110 % of control | [3] 104 % of control | [4] 104 % of control | [5] 104 % of control

CC(C)=CCNC12CC3CC(CC(C3)C1)C2
inactive: dose: 5.0 mg/kg/injection, schedule: Q01DX001 (ip), vehicle: saline 101 % of control | dose: 10.0 mg/kg/injection, schedule: Q01DX001 (ip), vehicle: saline 106 % of control | dose: 20.0 mg/kg/injection, schedule: Q01DX001 (ip), vehicle: saline 108 % of control | dose: 40.0 mg/kg/injection, schedule: Q01DX001 (ip), vehicle: saline 107 % of control | dose: 80.0 mg/kg/injection, schedule: Q01DX001 (ip), vehicle: saline 104 % of control

Cc1ccc(OCCOc2ccc(C(=O)O)cc2)cc1
inactive: [6] 95 % of control | [7] 101 % of control | [8] 101 % of control

C/C=C(/Br)C(=O)O
inactive: [9] 113 % of control | [10] 105 % of control | [11] 98 % of control | [12] 105 % of control

CCCCCC(=O)NCC(=O)N1CCC(C(=O)NCCCCC(=O)OC)C1 (configuration not stated)
inactive: dose: 100.0 mg/kg/injection, schedule: Q04DX003 (ip), vehicle: saline 97 % of control | dose: 200.0 mg/kg/injection, schedule: Q04DX003 (ip), vehicle: saline 94 % of control | dose: 400.0 mg/kg/injection, schedule: Q04DX003 (ip), vehicle: saline 86 % of control

O=S(=O)(NCCCl)c1cc(Cl)c(Cl)cc1Cl
inactive: [13] 97 % of control | [14] 94 % of control | [15] 94 % of control

CCC/C=C/C(O)C1CCCCC1 (configuration not stated)
inactive: [16] 92 % of control | [17] 95 % of control | [18] 95 % of control

O=S=Nc1c(Cl)cc(Cl)cc1Cl
inactive: [19] 101 % of control | [20] 104 % of control | dose: 400.0 mg/kg/injection, schedule: Q01DX009 (ip), vehicle: Klucel (hydroxypropylcellulose) (HPC) 108 % of control

COc1ccc(C(CC(C)=O)c2c(O)c3ccccc3oc2=O)cc1OC (configuration not stated)
inactive: dose: 1.56 mg/kg/injection, schedule: Q01DX009 (ip), vehicle: water 102 % of control | dose: 3.12 mg/kg/injection, schedule: Q01DX009 (ip), vehicle: water 97 % of control | dose: 6.25 mg/kg/injection, schedule: Q01DX009 (ip), vehicle: water 98 % of control | dose: 12.5 mg/kg/injection, schedule: Q01DX009 (ip), vehicle: water 93 % of control | dose: 25.0 mg/kg/injection, schedule: Q01DX009 (ip), vehicle: water 93 % of control and 86 % of control

C[N+](C)(C)Cc1ccccc1C=C(c1ccccc1)c1ccccc1
inactive: dose: 12.5 mg/kg/injection, schedule: Q01DX009 (ip), vehicle: Klucel (hydroxypropylcellulose) (HPC) 98 % of control | dose: 25.0 mg/kg/injection, schedule: Q01DX009 (ip), vehicle: Klucel (hydroxypropylcellulose) (HPC) 104 % of control | dose: 25.0 mg/kg/injection, schedule: Q04DX003 (ip), vehicle: Klucel (hydroxypropylcellulose) (HPC) 101 % of control | [21] 98 % of control | [22] 88 % of control

COc1cc2ccc3c(c2cc1OC)CCc1cnoc1-3
inactive: [23] 95 % of control | [24] 98 % of control | dose: 400.0 mg/kg/injection, schedule: Q04DX003 (ip), vehicle: saline with Tween-80 98 % of control

O=C(N1CCC2(CC1)SSC1(CCN(C(=O)C(F)(F)F)CC1)S2)C(F)(F)F
inactive: [17] 97 % of control | [18] 97 % of control | dose: 400.0 mg/kg/injection, schedule: Q01DX009 (ip), vehicle: saline with Tween-80 95 % of control

CC1=CCC2(C)C(=O)C1CC1=C2CC(C)(C)CC1=O (configuration not stated)
inactive: dose: 100.0 mg/kg/injection, schedule: Q01DX009 (ip), vehicle: saline 92 % of control | [6] 101 % of control | dose: 200.0 mg/kg/injection, schedule: Q01DX009 (ip), vehicle: saline 94 % of control | [7] 98 % of control | dose: 400.0 mg/kg/injection, schedule: Q01DX009 (ip), vehicle: saline 101 % of control | [8] 98 % of control

NCc1ccc[n+]([O-])c1
inactive: [9] 97 % of control | [10] 105 % of control | [11] 102 % of control and 118 % of control | dose: 200.0 mg/kg/injection, schedule: Q04DX002 (ip), vehicle: saline with Tween-80 89 % of control

Nc1cccc(OCCCOc2cccc(N)c2)c1
inactive: [21] 96 % of control | [19] 101 % of control | [20] 90 % of control

O=C(NCCO)C(=O)NCCO
inactive: [25] 115 % of control | [26] 110 % of control | [27] 96 % of control

COc1cc2ccc3c(c2cc1OC)C(=O)CNC3C (configuration not stated)
inactive: dose: 12.5 mg/kg/injection, schedule: Q04DX003 (ip), vehicle: saline 100 % of control | [22] 114 % of control | [6] 98 % of control | [7] 106 % of control | [8] 101 % of control

CCCCS(=O)(=O)N1CCCCC1C (configuration not stated)
inactive: [10] 96 % of control | [11] 96 % of control | [12] 86 % of control

CCOc1ccc(N2CSC(=S)N(c3ccc(OCC)cc3)C2)cc1
inactive: [19] 96 % of control | [6] 92 % of control | [20] 99 % of control | [7] 92 % of control | [8] 92 % of control

CS/C(N)=N/N=C(\N)SC
inactive: dose: 25.0 mg/kg/injection, schedule: Q01DX009 (ip), vehicle: saline with Tween-80 101 % of control | dose: 25.0 mg/kg/injection, schedule: Q04DX003 (ip), vehicle: saline with Tween-80 91 % of control | [16] 95 % of control | dose: 50.0 mg/kg/injection, schedule: Q04DX003 (ip), vehicle: saline with Tween-80 90 % of control | dose: 100.0 mg/kg/injection, schedule: Q01DX001 (ip), vehicle: saline with Tween-80 102 % of control | [23] 111 % of control

O=S(=O)(O)c1ccccc1O
inactive: [1] 101 % of control | [2] 98 % of control

CCCCNc1ccc(C(=O)O)cc1
inactive: dose: 100.0 mg/kg/injection, schedule: Q01DX009 (ip), vehicle: gum acacia 97 % of control | dose: 100.0 mg/kg/injection, schedule: Q04DX003 (ip), vehicle: gum acacia 90 % of control | dose: 200.0 mg/kg/injection, schedule: Q01DX009 (ip), vehicle: gum acacia 92 % of control | dose: 200.0 mg/kg/injection, schedule: Q04DX003 (ip), vehicle: gum acacia 91 % of control | dose: 400.0 mg/kg/injection, schedule: Q01DX009 (ip), vehicle: gum acacia 93 % of control | dose: 400.0 mg/kg/injection, schedule: Q04DX003 (ip), vehicle: gum acacia 93 % of control

O/N=C1/CCN2CCCc3cccc1c32
inactive: [23] 94 % of control | [24] 97 % of control

CC(C)c1nnnn1C12CC3CC(CC(C3)C1)C2
inactive: [3] 101 % of control | [4] 101 % of control | [5] 93 % of control

CO/N=C(\C)CSS(=O)(=O)OC
inactive: [25] 93 % of control | [26] 96 % of control | [27] 86 % of control

Cc1ccc(S(=O)(=O)C2CCCCC2)cc1
inactive: dose: 50.0 mg/kg/injection, schedule: Q01DX001 (ip), vehicle: carboxymethylcellulose (CMC) 96 % of control | [13] 107 % of control | [14] 102 % of control | [15] 102 % of control
